Laboratory results reported in ChEMBL document CHEMBL3352798, “Cytotoxic vobasine, tacaman, and corynanthe-tryptamine bisindole alkaloids from Tabernaemontana and structure revision of tronoharine” (J Nat Prod, 2014).
Values after ≈ are worked out from the molar mass of the structure shown.

How the values were obtained:
Type in all cases: functional, cell-based
KB = assay: Cytotoxicity against vincristine-sensitive human KB cells
[1] = Cytotoxicity against vincristine-resistant human KB/VJ300 cells
[2] = Cytotoxicity against vincristine-resistant human KB/VJ300 cells in presence of vincristine

Row | SMILES | IC50 (KB) | IC50 [1] | IC50 [2]
1 | CC[C@@H]1CN(C)[C@H]2Cc3c([nH]c4ccccc34)C(=O)C[C@H]1[C@H]2C(=O)OC | 5.5 µg/mL (≈ 15.5 µM) | > 25 µg/mL | 9.4 µg/mL
2 | COC(=O)[C@@H]1[C@@H]2Cc3c([nH]c4ccccc34)C(=O)C[C@@H]1[C@@]1(CN2C)O[C@H]1C | 5.7 µg/mL (≈ 15.5 µM) | > 25 µg/mL | > 25 µg/mL
3 | CCC1=CN(C)[C@H]2Cc3c([nH]c4ccccc34)C(=O)C[C@H]1[C@@H]2C(=O)OC | 18.9 µg/mL (≈ 53.6 µM) | > 25 µg/mL | > 25 µg/mL
4 | COC(=O)[C@H]1[C@@H]2CC(=O)c3[nH]c4ccccc4c3C[C@@H]1N(C)C=C2C(C)=O | > 25 µg/mL | > 25 µg/mL | > 25 µg/mL
5 | C/C=C1\CN2CC[C@@]3(C(=O)Nc4ccccc43)[C@@H]2C[C@H]1C[C@@H]1NCCc2c1[nH]c1ccccc21 | 20 µg/mL (≈ 44.2 µM) | > 25 µg/mL | 8.4 µg/mL
6 | CC[C@H]1CN(C)[C@H]2Cc3c([nH]c4ccccc34)C(=O)C[C@H]1[C@@H]2C(=O)OC | > 25 µg/mL | > 25 µg/mL | > 25 µg/mL
7 | C/C=C1/CN(C)[C@H]2Cc3c([nH]c4ccccc34)C(=O)C[C@H]1[C@H]2C(=O)OC | 5.6 µg/mL (≈ 15.9 µM) | 22 µg/mL (≈ 62.4 µM) | 13.5 µg/mL
8 | COC(=O)[C@H]1[C@@H]2CC(=O)c3[nH]c4ccccc4c3C[C@@H]1N(C)C=C2C=O | > 25 µg/mL | > 25 µg/mL | > 25 µg/mL
9 | COC(=O)[C@@H]1[C@@H]2CC(=O)c3[nH]c4ccccc4c3C[C@@H]1N(C)C=C2C=O | 5.1 µg/mL (≈ 14.5 µM) | > 25 µg/mL | > 25 µg/mL
10 | CC[C@@H]1CN(C)[C@H]2Cc3c([nH]c4ccccc34)C(=O)C[C@@H]1[C@H]2C(=O)OC [TABERNAEMONTANINE] | > 25 µg/mL | > 25 µg/mL | > 25 µg/mL
11 | CC[C@]1(O)C[C@H]2CN(CCc3c([nH]c4ccccc34)[C@@](C(=O)OC)(c3cc4c(cc3OC)N(C=O)[C@H]3[C@@](O)(C(=O)OC)[C@H](OC(C)=O)[C@]5(CC)C=CCN6CC[C@]43[C@@H]65)C2)C1 [VINCRISTINE] | 0.007 µg/mL (≈ 0.00849 µM) | 5.4 µg/mL (≈ 6.55 µM) | 
12 | C/C=C1/CN(C)[C@H]2Cc3c([nH]c4ccccc34)C(=O)C[C@H]1[C@@H]2C(=O)OC [VOBASINE] | > 25 µg/mL | > 25 µg/mL | > 25 µg/mL
